For the test, the target named is TNF-α converting enzyme (TACE) (Homo sapiens, UniProt P78536). As to the kind of experiment: Test procedure for measuring TACE inhibition (fluorescent peptidyl substrate). It counts as biochemical. The settings on record: Table 1.
Sequence of TNF-α converting enzyme (TACE) (P78536 215-824): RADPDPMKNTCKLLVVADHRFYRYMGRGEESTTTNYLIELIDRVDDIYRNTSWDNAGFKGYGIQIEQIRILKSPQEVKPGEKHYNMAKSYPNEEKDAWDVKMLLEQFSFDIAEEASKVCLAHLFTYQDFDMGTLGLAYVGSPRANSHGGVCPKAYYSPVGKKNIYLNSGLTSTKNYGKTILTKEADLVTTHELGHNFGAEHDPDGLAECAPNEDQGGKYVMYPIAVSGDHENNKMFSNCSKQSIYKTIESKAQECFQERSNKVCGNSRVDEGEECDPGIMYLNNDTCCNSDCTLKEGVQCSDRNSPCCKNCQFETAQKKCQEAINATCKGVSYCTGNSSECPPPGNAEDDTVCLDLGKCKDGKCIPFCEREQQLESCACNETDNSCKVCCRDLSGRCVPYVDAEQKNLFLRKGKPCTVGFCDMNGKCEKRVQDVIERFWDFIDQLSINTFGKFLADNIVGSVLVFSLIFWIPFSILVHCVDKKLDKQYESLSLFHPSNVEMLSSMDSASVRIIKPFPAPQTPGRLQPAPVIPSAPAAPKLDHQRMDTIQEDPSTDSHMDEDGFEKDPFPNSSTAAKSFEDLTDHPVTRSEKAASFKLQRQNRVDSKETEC
On to “2-(4-But-2-ynyloxy-benzenesulfinyl)-6-diphenylacetylamino-hexanoic acid hydroxyamide [Example 60]”, for which the IC50 (in general, the concentration at which inhibition is half-maximal) was 40.9 nM.
`CC#CCOc1ccc(SC(CCCCNC(=O)CN2C(=O)c3ccccc3C2=O)C(=O)NO)cc1` (stereo not shown) [Example 13, 2-(4-But-2-ynyloxy-phenylsulfanyl)-6-[2-(1,3-dioxo-1,3-dihydroiso-indol-2-yl)-acetylamino]-hexanoic acid hydroxyamide] returned an IC50 of 42.5 nM.
Take `CC#CCOc1ccc(SC(CCCCNC(=O)c2ccc3ccccc3n2)C(=O)NO)cc1` (stereo not shown) [Example 14, Quinoline-2-carboxylic acid [5-(4-but-2-ynyloxy-phenylsulfanyl)-5-hydroxycarbamoylpentyl]-amide]: the IC50 worked out at 62.9 nM.
With `CC#CCOc1ccc(SC(CCCCNC(=O)c2ccccc2CCc2ccccc2)C(=O)NO)cc1` (stereo not shown) [Example 15, N-[5-(4-But-2-ynyloxy-phenylsulfanyl)-5-hydroxycarbamoyl-pentyl]-2-phenethylbenzamide] the figure was 138 nM.
To `CC#CCOc1ccc(SC(CCCCNC(=O)Cc2ccc(Cl)c(Cl)c2)C(=O)NO)cc1` (stereo not shown) [Example 16, 2-(4-But-2-ynyloxy-phenylsulfanyl)-6-[2-(3,4-dichloro-phenyl)-acetylamino]-hexanoic acid hydroxyamide] belongs 24.9 nM; to `CC#CCOc1ccc(SC(CCCCNC(=O)c2cnc3ccccc3c2)C(=O)NO)cc1` (stereo not shown) [Example 17, Quinoline-3-carboxylic acid [5-(4-but-2-ynyloxy-phenylsulfanyl)-5-hydroxycarbamoylpentyl]-amide], 43.7 nM.
With `CC#CCOc1ccc(SC(CCCCNC(=O)CCCc2cccs2)C(=O)NO)cc1` (stereo not shown) [Example 18, 2-(4-But-2-ynyloxy-phenylsulfanyl)-6-(4-thiophen-2-yl-butyrylamino)-hexanoic acid hydroxyamide] the figure was 36.9 nM.
Consider `CC#CCOc1ccc(SC(CCCCNC(=O)C2c3ccccc3Oc3ccccc32)C(=O)NO)cc1` (stereo not shown) [Example 19, 9H-Xanthene-9-carboxylic acid [5-(4-but-2-ynyloxy-phenylsulfanyl)-5-hydroxycarbamoylpentyl]-amide], for which inhibition was half-maximal at 43.3 nM (IC50).
With `CC#CCOc1ccc(SC(CCCCNC(=O)C(c2ccccc2)c2ccccc2)C(=O)NO)cc1` (stereo not shown) [Example 20, 2-(4-But-2-ynyloxy-phenylsulfanyl)-6-diphenylacetylamino-hexanoic acid hydroxyamide] the figure was 88.6 nM; with `CC#CCOc1ccc(SC(CCCCNC(=O)c2nccc3ccccc23)C(=O)NO)cc1` (stereo not shown) [Example 21, Isoquinoline-1-carboxylic acid [5-(4-but-2-ynyloxy-phenylsulfanyl)-5-hydroxycarbamoylpentyl]-amide], 20.1 nM; with `CC#CCOc1ccc(SC(CCCCNC(=O)Cc2csc3ccccc23)C(=O)NO)cc1` (stereo not shown) [Example 22, 6-(2-Benzo[b]thiophen-3-yl-acetylamino)-2-(4-but-2-ynyloxy-phenylsulfanyl)-hexanoic acid hydroxyamide], 32.8 nM.
Take `CC#CCOc1ccc([S+]([O-])C(CCCCNC(=O)CN2C(=O)c3ccccc3C2=O)C(=O)NO)cc1` (stereo not shown) [Example 24, 2-(4-But-2-ynyloxy-benzenesulfinyl)-6-[2-(1,3-dioxo-1,3-dihydro-isoindol-2-yl)-acetylamino]-hexanoic acid hydroxyamide]: the IC50 stood at 30 nM.
To `CC#CCOc1ccc([S+]([O-])C(CCCCNC(=O)c2ccccc2CCc2ccccc2)C(=O)NO)cc1` (stereo not shown) [Example 25, N-[5-(4-But-2-ynyloxy-benzenesulfinyl)-5-hydroxycarbamoyl-pentyl]-2-phenethylbenzamide] belongs 43.5 nM; to `CC#CCOc1ccc([S+]([O-])C(CCCCNC(=O)Cc2ccc(Cl)c(Cl)c2)C(=O)NO)cc1` (stereo not shown) [Example 26, 2-(4-But-2-ynyloxy-benzenesulfinyl)-6-[2-(3,4-dichloro-phenyl)-acetylamino]-hexanoic acid hydroxyamide], 29.9 nM; to `CC#CCOc1ccc([S+]([O-])C(CCCCNC(=O)c2cnc3ccccc3c2)C(=O)NO)cc1` (stereo not shown) [Example 27, Quinoline-3-carboxylic acid [5-(4-but-2-ynyloxy-benzenesulfinyl)-5-hydroxycarbamoylpentyl]-amide], 46.3 nM.
To `CC#CCOc1ccc([S+]([O-])C(CCCCNC(=O)CCCc2cccs2)C(=O)NO)cc1` (stereo not shown) [Example 28, 2-(4-But-2-ynyloxy-benzenesulfinyl)-6-(4-thiophen-2-yl-butyrylamino)-hexanoic acid hydroxyamide] belongs 26.6 nM; to `CC#CCOc1ccc([S+]([O-])C(CCCCNC(=O)Cc2csc3ccccc23)C(=O)NO)cc1` (stereo not shown) [Example 32, 6-(2-Benzo[b]thiophen-3-yl-acetylamino)-2-(4-but-2-ynyloxy-benzenesulfinyl)-hexanoic acid hydroxyamide], 46.8 nM.
`CC#CCOc1ccc([S+]([O-])C(CCCCNC(=O)Cc2c[nH]c3ccccc23)C(=O)NO)cc1` (stereo not shown) [Example 33, 2-(4-But-2-ynyloxy-benzenesulfinyl)-6-(2-1H-indol-3-yl-acetylamino)-hexanoic acid hydroxyamide] displayed an IC50 of 35.6 nM.
To `CC#CCOc1ccc(S(=O)(=O)C(CCCCNC(=O)c2ccc3ccccc3n2)C(=O)NO)cc1` (stereo not shown) [Example 35, Quinoline-2-carboxylic acid [5-(4-but-2-ynyloxy-benzenesulfonyl)-5-hydroxycarbamoylpentyl]-amide] belongs 68.3 nM.
With `CC#CCOc1ccc(S(=O)(=O)C(CCCCNC(=O)CN2C(=O)c3ccccc3C2=O)C(=O)NO)cc1` (stereo not shown) [Example 36, 2-(4-But-2-ynyloxy-benzenesulfonyl)-6-[2-(1,3-dioxo-1,3-dihydro-isoindol-2-yl)-acetylamino]-hexanoic acid hydroxyamide] the figure was 16.8 nM.
To `CC#CCOc1ccc(S(=O)(=O)C(CCCCNC(=O)c2cnc3ccccc3c2)C(=O)NO)cc1` (stereo not shown) [Example 38, Quinoline-3-carboxylic acid [5-(4-but-2-ynyloxy-benzenesulfonyl)-5-hydroxycarbamoylpentyl]-amide] belongs 39.9 nM; to `CC#CCOc1ccc(S(=O)(=O)C(CCCCNC(=O)C2c3ccccc3Oc3ccccc32)C(=O)NO)cc1` (stereo not shown) [Example 39, 9H-Xanthene-9-carboxylic acid [5-(4-but-2-ynyloxy-benzenesulfonyl)-5-hydroxycarbamoyl-pentyl]-amide], 65.1 nM; to `CC#CCOc1ccc(S(=O)(=O)C(CCCCNC(=O)C(c2ccccc2)c2ccccc2)C(=O)NO)cc1` (stereo not shown) [Example 40, 2-(4-But-2-ynyloxy-benzenesulfonyl)-6-diphenylacetylamino-hexanoic acid hydroxyamide], 59.1 nM.
Consider `CC#CCOc1ccc(S(=O)(=O)C(CCCCNC(=O)c2nccc3ccccc23)C(=O)NO)cc1` (stereo not shown) [Example 41, Isoquinoline-1-carboxylic acid [5-(4-but-2-ynyloxy-benzenesulfonyl)-5-hydroxycarbamoyl-pentyl]-amide], for which half-maximal inhibition (IC50) was put at 37.3 nM.
`CC#CCOc1ccc(S(=O)(=O)C(CCCCNC(=O)Cc2csc3ccccc23)C(=O)NO)cc1` (stereo not shown) [Example 42, 6-(2-Benzo[b]thiophen-3-yl-acetylamino)-2-(4-but-2-ynyloxy-benzenesulfonyl)-hexanoic acid hydroxyamide] showed an IC50 of 24.9 nM.

Source of the values: patent EP1147080B1 (Wyeth Holdings Corporation, priority 1999, dated 2000).
